Legend:
Format in all cases: physicochemical
[1] = Competitive slurry experiments of Form S1 and Form S4; details: IPA, approximately equal amounts of Form S1 and Form S4
Method: To verify the transition temperature between Form S1 and Form S4 of Compound (1) calculated from the DSC data, competitive slurry experiments of Form S1 and Form S4 were performed.
In each experiment, slurries were generated using approximately equal amounts of Form S1 and Form S4. The forms were suspended in 0.3 mL of solvent in a 1.5 mL glass vial. […] The remaining solids were isolated via centrifugation (10000 rpm, 3 min) and analyzed using the XPRD analysis method described above.

[2] = Dynamic vapor sorption (DVS) analysis; details: for hygroscopicity by DVS / mass uptake by DVS / mass uptake by DVS expressed as equivalents of water: 25° C.; for hygroscopicity by DVS: up to 90% RH; for change of the XRPD pattern of the sample following the DVS analysis: after two sorption/desorption cycles at 25° C.; for mass uptake by DVS / mass uptake by DVS expressed as equivalents of water: at 90% RH
Method: Approximately 10-20 mg of sample was placed into a mesh vapor sorption balance pan and loaded into a DVS Intrinsic/Advantage dynamic vapor sorption balance by Surface Measurement Systems. The sample was subjected to a ramping profile from 40-90% relative humidity (RH) at 10% increments, maintaining the sample at each step until a stable weight had been achieved (dm/dt 0.004%, minimum step length 30 minutes, maximum step length 500 minutes) at 25° C. After completion of the sorption cycle, the sample was dried using the same procedure to 0% RH and then a second sorption cycle back to 40% RH. Two cycles were performed. The weight change during the sorption/desorption cycles were plotted, allowing for the hygroscopic nature of the sample to be determined. XRPD analysis was then carried out on any solid retained. The microbalance was calibrated monthly using a certified calibration weight and the relative humidity at 25° C. was calibrated against deliquescence point of LiCl, MgCl and NaCl. Data were not corrected for the initial water content of the sample, and data were shown according to the dry mass of the sample at 0% RH.

TGA analysis = details: up to 185° C., heating rate 10° C./min
Method: (§1) TGA data were collected using a TA Q500 TGA from TA Instruments, and DSC was conducted using a TA Q2000 DSC from TA Instruments. The TGA was calibrated with a nickel reference standard and the DSC was calibrated with an indium reference standard.

[3] = DSC analysis (form conversion under heating); details: TGA/DSC heating
Method: as §1

| Structure (SMILES) | Results: solid form remaining after competitive slurry (XRPD) ([1]; 60 ° C., time point 1 hr) | Results: solid form remaining after competitive slurry (XRPD) ([1]; 70 ° C., time point 1 hr) | Results: solid form remaining after competitive slurry (XRPD) ([1]; 80 ° C., time point not given) | hygroscopicity by DVS [2] | change of the XRPD pattern of the sample following the DVS analysis [2] | mass uptake by DVS [2] | mass uptake by DVS expressed as equivalents of water [2] [eq. water] | weight loss on the TGA curve (TGA analysis) [%] | form conversion under heating conditions (thermal analyses) [3] |
| --- | --- | --- | --- | --- | --- | --- | --- | --- | --- |
| COC[C@@]1(O)CC[C@H]2[C@@H](CC[C@@H]3[C@@H]2CC[C@]2(C)[C@@H](C(=O)Cn4nnc(C)n4)CC[C@@H]32)C1 [Form S1 and Form S4] | Form S1 | Form S1 | Form S4 | – | – | – | – | – | – |
| COC[C@@]1(O)CC[C@H]2[C@@H](CC[C@@H]3[C@@H]2CC[C@]2(C)[C@@H](C(=O)Cn4nnc(C)n4)CC[C@@H]32)C1 [Form S1] | – | – | converted to Form S4 | substantially non-hygroscopic | No change | ca. 0.6 wt. % | 0.14 | 0.1 | converts to Form S4 |
| COC[C@@]1(O)CC[C@H]2[C@@H](CC[C@@H]3[C@@H]2CC[C@]2(C)[C@@H](C(=O)Cn4nnc(C)n4)CC[C@@H]32)C1 [Form S4] | converted to Form S1 | converted to Form S1 | – | non-hygroscopic | No change | ca. 0.12 wt. % | 0.02 | 0.1 | – |
